Key:
Test in all cases: Eurofins kinase selectivity profile against 380 other human recombinant kinases (Table S2)
Format in all cases: biochemical
[1] = target: T1, 380 human recombinant protein kinases (Homo sapiens, UniProt O15075); details: DCAMKL1(h), read-out: Inhibition rate
T1 construct: purchased Eurofins (Celle Lévescault)
Procedure, shortened: (§1)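 Profiling against 380 human recombinant kinases carried out by Eurofins at various compound concentrations.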

[2] = target: T2, 380 human recombinant protein kinases (Homo sapiens, UniProt P08631); details: Hck(h), read-out: Inhibition rate
T2 construct: purchased Eurofins (Celle Lévescault)
Procedure, shortened: as §1

[3] = target: T3, 380 human recombinant protein kinases (Homo sapiens, UniProt P42680); details: Tec(h) activated, read-out: Inhibition rate (%)
T3 construct: purchased Eurofins (Celle Lévescault)
T3 sequence (P42680 1-631): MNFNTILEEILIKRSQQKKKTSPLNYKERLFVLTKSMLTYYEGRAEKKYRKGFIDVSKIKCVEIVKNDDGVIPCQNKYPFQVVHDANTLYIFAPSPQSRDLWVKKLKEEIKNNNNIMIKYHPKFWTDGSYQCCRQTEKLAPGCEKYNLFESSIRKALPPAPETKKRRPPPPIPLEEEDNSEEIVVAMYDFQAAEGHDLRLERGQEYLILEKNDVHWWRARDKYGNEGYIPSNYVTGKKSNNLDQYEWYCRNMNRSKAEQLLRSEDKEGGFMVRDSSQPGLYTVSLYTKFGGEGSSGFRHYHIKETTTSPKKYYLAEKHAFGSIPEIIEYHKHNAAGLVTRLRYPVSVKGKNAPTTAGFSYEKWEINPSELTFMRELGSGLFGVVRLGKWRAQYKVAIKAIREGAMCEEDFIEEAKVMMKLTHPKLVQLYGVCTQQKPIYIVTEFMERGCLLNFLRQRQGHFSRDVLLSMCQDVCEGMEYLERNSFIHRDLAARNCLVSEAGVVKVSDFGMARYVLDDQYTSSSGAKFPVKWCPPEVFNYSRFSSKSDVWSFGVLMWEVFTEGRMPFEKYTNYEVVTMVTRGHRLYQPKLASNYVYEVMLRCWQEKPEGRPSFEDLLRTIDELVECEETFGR
Procedure, shortened: as §1

[4] = target: T4, 380 human recombinant protein kinases (Homo sapiens, UniProt P53667); details: LIMK1(h), read-out: Inhibition rate
T4 construct: purchased Eurofins (Celle Lévescault)
Procedure, shortened: as §1

[5] = target: T5, 380 human recombinant protein kinases (Homo sapiens, UniProt P53671); details: LIMK2(h), read-out: Inhibition rate
T5 construct: purchased Eurofins (Celle Lévescault)
Procedure, shortened: as §1

[6] = target: T6, 380 human recombinant protein kinases (Homo sapiens, UniProt Q99759); details: MEKK3(h), read-out: Inhibition rate
T6 construct: purchased Eurofins (Celle Lévescault)
T6 sequence (Q99759 1-626): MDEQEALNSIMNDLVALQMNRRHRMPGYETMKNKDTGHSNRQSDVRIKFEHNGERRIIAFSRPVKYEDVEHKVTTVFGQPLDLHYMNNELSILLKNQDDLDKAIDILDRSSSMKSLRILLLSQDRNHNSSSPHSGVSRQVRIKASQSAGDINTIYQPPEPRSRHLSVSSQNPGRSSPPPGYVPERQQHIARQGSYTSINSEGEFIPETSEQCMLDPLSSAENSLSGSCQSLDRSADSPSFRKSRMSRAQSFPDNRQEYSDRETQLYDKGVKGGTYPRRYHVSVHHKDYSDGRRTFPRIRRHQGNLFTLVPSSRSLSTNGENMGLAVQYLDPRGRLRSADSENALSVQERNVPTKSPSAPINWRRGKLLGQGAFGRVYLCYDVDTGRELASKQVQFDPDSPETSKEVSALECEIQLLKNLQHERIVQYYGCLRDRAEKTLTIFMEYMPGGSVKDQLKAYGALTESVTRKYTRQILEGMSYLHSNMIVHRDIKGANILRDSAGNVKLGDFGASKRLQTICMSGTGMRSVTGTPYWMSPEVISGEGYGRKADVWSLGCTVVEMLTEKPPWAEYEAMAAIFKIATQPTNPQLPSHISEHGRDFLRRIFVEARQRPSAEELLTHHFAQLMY
Procedure, shortened: as §1

[7] = target: T7, 380 human recombinant protein kinases (Homo sapiens, UniProt Q9NWZ3); details: IRAK4(h), read-out: Inhibition rate
T7 construct: purchased Eurofins (Celle Lévescault)
T7 sequence (Q9NWZ3 1-460): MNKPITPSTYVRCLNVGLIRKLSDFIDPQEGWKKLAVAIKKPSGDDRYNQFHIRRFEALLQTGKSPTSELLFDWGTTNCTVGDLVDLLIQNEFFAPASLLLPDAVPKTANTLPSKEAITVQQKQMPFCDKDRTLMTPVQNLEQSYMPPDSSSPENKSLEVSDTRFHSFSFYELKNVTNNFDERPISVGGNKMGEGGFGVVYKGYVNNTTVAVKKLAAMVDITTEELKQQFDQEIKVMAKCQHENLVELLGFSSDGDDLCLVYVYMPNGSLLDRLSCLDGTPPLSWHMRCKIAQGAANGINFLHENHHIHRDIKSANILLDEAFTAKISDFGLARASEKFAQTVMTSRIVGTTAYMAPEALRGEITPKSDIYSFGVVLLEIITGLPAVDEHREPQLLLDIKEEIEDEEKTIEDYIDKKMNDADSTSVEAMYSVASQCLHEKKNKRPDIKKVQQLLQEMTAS
Procedure, shortened: as §1

[8] = target: T8, 380 human recombinant protein kinases (Homo sapiens, UniProt Q9UM73); details: ALK(h), read-out: Inhibition rate
T8 construct: purchased Eurofins (Celle Lévescault)
Procedure, shortened: as §1

[9] = target: T9, 380 human recombinant protein kinases (Homo sapiens, UniProt Q9Y463); details: DYRK1B(h), read-out: Inhibition rate
T9 construct: purchased Eurofins (Celle Lévescault)
Procedure, shortened: as §1

T1 sequence (O15075 whole entry): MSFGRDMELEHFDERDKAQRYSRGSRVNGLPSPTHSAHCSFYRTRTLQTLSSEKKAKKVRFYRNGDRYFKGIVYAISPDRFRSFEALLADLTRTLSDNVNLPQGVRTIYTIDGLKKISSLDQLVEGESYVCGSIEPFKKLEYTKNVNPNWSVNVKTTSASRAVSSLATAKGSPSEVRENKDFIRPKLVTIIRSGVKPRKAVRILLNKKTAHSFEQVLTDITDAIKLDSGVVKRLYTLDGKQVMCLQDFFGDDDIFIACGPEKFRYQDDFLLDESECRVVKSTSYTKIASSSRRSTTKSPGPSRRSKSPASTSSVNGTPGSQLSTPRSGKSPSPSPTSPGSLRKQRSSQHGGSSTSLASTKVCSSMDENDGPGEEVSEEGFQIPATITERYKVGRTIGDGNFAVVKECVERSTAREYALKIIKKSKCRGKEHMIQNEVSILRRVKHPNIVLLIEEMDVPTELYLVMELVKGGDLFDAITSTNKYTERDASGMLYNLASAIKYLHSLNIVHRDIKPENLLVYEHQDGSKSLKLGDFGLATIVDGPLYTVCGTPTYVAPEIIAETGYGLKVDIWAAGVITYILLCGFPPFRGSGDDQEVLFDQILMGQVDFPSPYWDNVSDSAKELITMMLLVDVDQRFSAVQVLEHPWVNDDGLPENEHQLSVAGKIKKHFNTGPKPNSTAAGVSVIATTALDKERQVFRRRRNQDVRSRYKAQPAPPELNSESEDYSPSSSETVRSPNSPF
T2 sequence (P08631 whole entry): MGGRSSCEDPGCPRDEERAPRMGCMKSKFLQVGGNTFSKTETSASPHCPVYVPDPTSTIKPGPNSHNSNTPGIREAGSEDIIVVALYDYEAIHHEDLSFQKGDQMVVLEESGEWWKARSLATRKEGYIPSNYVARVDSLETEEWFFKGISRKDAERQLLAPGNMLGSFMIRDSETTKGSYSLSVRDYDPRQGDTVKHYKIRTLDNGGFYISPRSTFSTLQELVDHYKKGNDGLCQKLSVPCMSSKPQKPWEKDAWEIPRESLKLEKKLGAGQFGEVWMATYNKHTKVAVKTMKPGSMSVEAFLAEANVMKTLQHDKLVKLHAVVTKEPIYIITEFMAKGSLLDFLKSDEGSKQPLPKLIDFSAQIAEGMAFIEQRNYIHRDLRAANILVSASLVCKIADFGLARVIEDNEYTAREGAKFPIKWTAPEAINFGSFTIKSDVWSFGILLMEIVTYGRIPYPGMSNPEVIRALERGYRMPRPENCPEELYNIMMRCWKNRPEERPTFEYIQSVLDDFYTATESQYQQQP
T4 sequence (P53667 whole entry): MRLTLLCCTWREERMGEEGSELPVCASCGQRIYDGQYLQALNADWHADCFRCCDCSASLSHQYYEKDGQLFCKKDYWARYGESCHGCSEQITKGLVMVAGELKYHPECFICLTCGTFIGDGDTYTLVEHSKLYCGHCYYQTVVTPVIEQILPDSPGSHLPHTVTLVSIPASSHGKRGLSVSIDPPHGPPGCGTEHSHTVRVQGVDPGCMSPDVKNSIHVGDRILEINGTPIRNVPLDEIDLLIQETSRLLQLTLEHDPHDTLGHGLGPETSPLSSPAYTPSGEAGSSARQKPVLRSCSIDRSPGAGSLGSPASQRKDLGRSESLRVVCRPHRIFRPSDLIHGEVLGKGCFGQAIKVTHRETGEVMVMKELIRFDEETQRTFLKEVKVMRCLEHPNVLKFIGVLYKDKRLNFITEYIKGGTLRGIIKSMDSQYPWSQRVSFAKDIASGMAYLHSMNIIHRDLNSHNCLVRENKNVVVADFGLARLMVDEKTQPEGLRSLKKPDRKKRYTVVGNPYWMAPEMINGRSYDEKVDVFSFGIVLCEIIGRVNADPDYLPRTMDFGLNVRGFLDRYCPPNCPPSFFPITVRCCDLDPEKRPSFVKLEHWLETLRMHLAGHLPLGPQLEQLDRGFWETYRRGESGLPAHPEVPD
T8 sequence (Q9UM73 19-1620): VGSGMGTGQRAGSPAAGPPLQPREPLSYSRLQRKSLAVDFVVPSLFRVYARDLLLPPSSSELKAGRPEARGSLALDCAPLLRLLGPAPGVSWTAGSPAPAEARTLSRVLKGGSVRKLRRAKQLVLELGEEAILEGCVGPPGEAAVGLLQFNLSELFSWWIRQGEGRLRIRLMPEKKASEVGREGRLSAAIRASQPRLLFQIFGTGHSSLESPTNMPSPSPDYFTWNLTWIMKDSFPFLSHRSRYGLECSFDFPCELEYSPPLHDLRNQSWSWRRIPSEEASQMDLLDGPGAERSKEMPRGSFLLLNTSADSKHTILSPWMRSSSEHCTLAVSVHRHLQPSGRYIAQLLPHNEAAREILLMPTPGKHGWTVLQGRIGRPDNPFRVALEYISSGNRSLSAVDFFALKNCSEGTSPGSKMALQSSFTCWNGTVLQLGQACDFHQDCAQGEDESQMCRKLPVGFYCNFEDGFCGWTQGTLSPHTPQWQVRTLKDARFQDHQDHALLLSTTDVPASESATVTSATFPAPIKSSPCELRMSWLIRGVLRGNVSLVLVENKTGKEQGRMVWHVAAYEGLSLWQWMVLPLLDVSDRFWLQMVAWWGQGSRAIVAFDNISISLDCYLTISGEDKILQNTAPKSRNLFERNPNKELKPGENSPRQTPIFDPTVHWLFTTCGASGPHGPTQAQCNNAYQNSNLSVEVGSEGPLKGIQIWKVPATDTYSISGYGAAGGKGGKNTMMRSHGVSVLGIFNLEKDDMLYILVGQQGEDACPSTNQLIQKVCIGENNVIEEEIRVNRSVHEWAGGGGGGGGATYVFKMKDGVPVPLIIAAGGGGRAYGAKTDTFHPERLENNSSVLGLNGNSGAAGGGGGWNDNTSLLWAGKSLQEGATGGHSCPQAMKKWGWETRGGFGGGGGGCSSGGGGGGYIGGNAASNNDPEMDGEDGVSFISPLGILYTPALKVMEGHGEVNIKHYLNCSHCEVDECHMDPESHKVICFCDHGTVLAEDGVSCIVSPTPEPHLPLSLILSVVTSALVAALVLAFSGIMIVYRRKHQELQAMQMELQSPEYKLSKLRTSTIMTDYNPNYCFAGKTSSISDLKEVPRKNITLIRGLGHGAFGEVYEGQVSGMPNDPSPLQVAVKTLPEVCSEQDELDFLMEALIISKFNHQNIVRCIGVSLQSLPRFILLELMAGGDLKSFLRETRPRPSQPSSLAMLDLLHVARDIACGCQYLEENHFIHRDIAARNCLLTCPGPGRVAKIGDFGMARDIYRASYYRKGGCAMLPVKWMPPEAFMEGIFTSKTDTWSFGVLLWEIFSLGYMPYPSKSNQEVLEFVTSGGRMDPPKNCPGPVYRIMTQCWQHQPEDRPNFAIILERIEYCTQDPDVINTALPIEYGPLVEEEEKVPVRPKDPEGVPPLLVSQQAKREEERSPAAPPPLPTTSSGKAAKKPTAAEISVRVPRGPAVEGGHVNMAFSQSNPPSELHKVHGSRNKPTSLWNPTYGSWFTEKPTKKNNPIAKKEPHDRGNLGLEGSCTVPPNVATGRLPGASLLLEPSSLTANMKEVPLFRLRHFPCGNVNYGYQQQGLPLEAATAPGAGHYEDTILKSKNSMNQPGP
T9 sequence (Q9Y463 whole entry): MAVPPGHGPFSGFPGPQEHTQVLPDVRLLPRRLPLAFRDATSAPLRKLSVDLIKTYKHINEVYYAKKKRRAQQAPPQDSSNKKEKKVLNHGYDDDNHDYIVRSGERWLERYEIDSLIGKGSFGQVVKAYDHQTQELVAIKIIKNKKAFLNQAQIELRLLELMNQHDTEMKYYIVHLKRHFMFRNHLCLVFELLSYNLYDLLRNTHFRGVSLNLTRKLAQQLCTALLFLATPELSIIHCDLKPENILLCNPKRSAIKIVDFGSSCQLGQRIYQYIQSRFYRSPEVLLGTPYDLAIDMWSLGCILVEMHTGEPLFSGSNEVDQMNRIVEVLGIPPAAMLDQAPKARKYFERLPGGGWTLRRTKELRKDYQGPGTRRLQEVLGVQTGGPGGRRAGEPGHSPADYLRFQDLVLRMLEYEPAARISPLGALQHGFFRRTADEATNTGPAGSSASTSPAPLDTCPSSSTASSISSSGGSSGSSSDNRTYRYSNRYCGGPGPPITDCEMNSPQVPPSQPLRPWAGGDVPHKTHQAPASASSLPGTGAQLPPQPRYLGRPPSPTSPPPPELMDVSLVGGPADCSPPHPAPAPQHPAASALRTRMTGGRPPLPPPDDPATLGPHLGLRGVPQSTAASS
T5 sequence (P53671 whole entry): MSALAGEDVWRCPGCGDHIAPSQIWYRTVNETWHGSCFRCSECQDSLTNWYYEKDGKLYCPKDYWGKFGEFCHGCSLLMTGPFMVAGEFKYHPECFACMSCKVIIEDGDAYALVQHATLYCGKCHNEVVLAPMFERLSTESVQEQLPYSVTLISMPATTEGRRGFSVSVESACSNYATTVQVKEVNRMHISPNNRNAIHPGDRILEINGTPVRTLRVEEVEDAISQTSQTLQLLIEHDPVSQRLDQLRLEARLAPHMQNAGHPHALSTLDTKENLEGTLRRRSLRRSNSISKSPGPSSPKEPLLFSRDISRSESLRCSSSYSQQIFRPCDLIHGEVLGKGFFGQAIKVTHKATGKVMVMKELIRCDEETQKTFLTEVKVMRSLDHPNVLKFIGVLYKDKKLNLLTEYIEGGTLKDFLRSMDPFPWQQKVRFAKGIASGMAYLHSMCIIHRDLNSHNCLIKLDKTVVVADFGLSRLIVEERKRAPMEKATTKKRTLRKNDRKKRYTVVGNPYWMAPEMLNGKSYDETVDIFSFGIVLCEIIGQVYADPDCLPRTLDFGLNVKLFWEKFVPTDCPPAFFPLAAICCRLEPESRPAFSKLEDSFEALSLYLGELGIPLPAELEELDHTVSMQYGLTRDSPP

`C=CC(=O)Nc1cc(-c2cc(-c3cc4c([nH]3)CCNC4=O)ccn2)ccc1OC(F)(F)F` [compound 11] showed an inhibition at 0.01 µM ([1]; 10 nM) of 3%, an inhibition at 0.1 µM ([1]; 100 nM) of -1% and an inhibition at 1 µM ([1]; 1000 nM) of -1%. For the same molecule, the inhibition at 0.01 µM ([2]; 10 nM) was -3%, the inhibition at 0.1 µM ([2]; 100 nM) was -7% and the inhibition at 1 µM ([2]; 1000 nM) was 4%. The inhibition at 0.01 µM ([3]; 10 nM) was 8%, the inhibition at 0.1 µM ([3]; 100 nM) was 11% and the inhibition at 1 µM ([3]; 1000 nM) was 17%. For the same molecule, the inhibition at 0.01 µM ([4]; 10 nM) was -5%, the inhibition at 0.1 µM ([4]; 100 nM) was -2% and the inhibition at 1 µM ([4]; 1000 nM) was -2%. It also gave an inhibition at 0.01 µM ([5]; 10 nM) of -9%, an inhibition at 0.1 µM ([5]; 100 nM) of -8% and an inhibition at 1 µM ([5]; 1000 nM) of -1%. The inhibition at 0.01 µM ([6]; 10 nM) was -5%, the inhibition at 0.1 µM ([6]; 100 nM) was 11% and the inhibition at 1 µM ([6]; 1000 nM) was 12%. It also gave an inhibition at 0.01 µM ([7]; 10 nM) of -4%, an inhibition at 0.1 µM ([7]; 100 nM) of -9% and an inhibition at 1 µM ([7]; 1000 nM) of -2%. For the same molecule, the inhibition at 0.01 µM ([8]; 10 nM) was 6%, the inhibition at 0.1 µM ([8]; 100 nM) was 6% and the inhibition at 1 µM ([8]; 1000 nM) was 16%. It also gave an inhibition at 0.01 µM ([9]; 10 nM) of 21%, an inhibition at 0.1 µM ([9]; 100 nM) of 77% and an inhibition at 1 µM ([9]; 1000 nM) of 97%.

From PMC11233931, “Remodeling tumor‐associated macrophage for anti‐cancer effects by rational design of irreversible inhibition of mitogen‐activated protein kinase‐activated protein kinase 2” (MedComm, 2024)
